Assay results reported in patent US9326513B2, “Fungicidal compositions” (Syngenta Participations AG, priority 2011, dated 2016).

Columns and labels:
Type in all cases: in vivo
Settings in all cases: foliar, compared to untreated control leaf disks, read-out: disease control
[1] = test system: Puccinia recondita f. sp. tritici; experiment: Puccinia recondita f. sp. tritici / wheat / leaf disc curative (brown rust)
Protocol: Puccinia recondita f. sp. tritici/Wheat/Leaf Disc Curative (Brown Rust) Wheat leaf segments cv. Kanzler are placed on agar in multiwell plates (24-well format). The leaf segments are inoculated with a spore suspension of the fungus. Plates were stored in darkness at 19° C. and 75% rh. The formulated test compound diluted in water was applied 1 day after inoculation.

[2] = test system: Puccinia recondita f. sp. tritici; experiment: Puccinia recondita f. sp. tritici / wheat / leaf disc preventative (brown rust)
Excerpt: Puccinia recondita f. sp. tritici/Wheat/Leaf Disc Preventative (Brown Rust) Wheat leaf segments cv. Kanzler were placed on agar in multiwell plates (24-well format) and sprayed with the formulated test compound diluted in water. The leaf disks were inoculated with a spore suspension of the fungus 1 day after application.

[3] = test system: Blumeria graminis f. sp. tritici (Erysiphe graminis f. sp. tritici); experiment: Blumeria graminis f. sp. tritici / wheat / leaf disc preventative (powdery mildew on wheat)
Protocol: Blumeria graminis f. sp. tritici (Erysiphe graminis f. sp. tritici)/Wheat/Leaf Disc Preventative (Powdery Mildew on Wheat)
Wheat leaf segments cv. Kanzler were placed on agar in a multiwell plate (24-well format) and sprayed with the formulated test compound diluted in water. The leaf disks were inoculated by shaking powdery mildew infected plants above the test plates 1 day after application. The inoculated leaf disks were incubated at 20° C. and 60% rh under a light regime of 24 h darkness followed by 12 h light/12 h darkness in a climate chamber and the activity of a compound was assessed as percent disease control compared to untreated when an appropriate level of disease damage appears on untreated check leaf segments (6-8 days after application).
The following compounds gave at 200 ppm give at least 50% disease control in this test when compared to untreated control leaf disks under the same conditions, which show extensive disease development: […]

Measured: pest or weed control at 200 ppm

CCN(C)/C=N/c1cc(-c2ccccc2)c(OC(C)c2cc(F)cc(F)c2)nc1C (stereo not drawn) [Q.263]
≥ 50%: [1] | [2] | [3]

CCN(C)/C=N/c1cc(-c2ccsc2)c(OC(C)c2cc(F)cc(F)c2)nc1C (stereo not drawn) [Q.265]
≥ 50%: [1] | [2] | [3]

CCN(C)/C=N/c1cc(Br)c(O[C@H]2CC[C@H](c3ccccc3)CC2)nc1C [Q.270]
≥ 50%: [1] | [2] | [3]

CCN(C)/C=N/c1cc(Br)c(OCC[Si](C)(C)C)nc1C [Q.271]
≥ 50%: [1] | [2] | [3]

CCN(C)/C=N/c1cc(Br)c(OC(C)CC[Si](C)(C)C)nc1C (stereo not drawn) [Q.273]
≥ 50%: [1] | [2] | [3]

CCN(C)/C=N/c1cc(Br)c(OCC[Si](CC)(CC)CC)nc1C [Q.274]
≥ 50%: [1] | [2] | [3]

C=Cc1ccccc1C(C)Oc1nc(C)c(/N=C/N(C)CC)cc1Br (stereo not drawn) [Q.276]
≥ 50%: [1] | [2] | [3]

CCN(C)/C=N/c1cc(Br)c(OC2C=CC(=O)CC2)nc1C (stereo not drawn) [Q.281]
≥ 50%: [1] | [2] | [3]

CCc1ccccc1C(C)Oc1nc(C)c(/N=C/N(C)CC)cc1Br (stereo not drawn) [Q.283]
≥ 50%: [1] | [2] | [3]

CCCc1ccccc1C(C)Oc1nc(C)c(/N=C/N(C)CC)cc1Br (stereo not drawn) [Q.287]
≥ 50%: [1] | [2] | [3]

CCN(C)/C=N/c1cc(Br)c(OC(C)c2ccccc2C(F)F)nc1C (stereo not drawn) [Q.290]
≥ 50%: [1] | [2] | [3]

CCN(C)/C=N/c1cc(Br)c(OCc2ccccc2-c2ccccc2)nc1C [Q.294]
≥ 50%: [1] | [2] | [3]

CCN(C)/C=N/c1ccc(OCc2cc(C)cc(C)c2)nc1C [Q.296]
≥ 50%: [1] | [2] | [3]

Cc1cc(C)cc(COc2ccc(/N=C/N(C)C(C)C)c(C)n2)c1 [Q.297]
≥ 50%: [1] | [2] | [3]

CCN(C)/C=N/c1cc(Br)c(OC(C)c2ccccc2Br)nc1C (stereo not drawn) [Q.303]
≥ 50%: [1] | [2] | [3]

CCN(C)/C=N/c1cc(Br)c(OC(C)c2ccccc2C#N)nc1C (stereo not drawn) [Q.305]
≥ 50%: [1] | [2] | [3]

CCN(C)/C=N/c1cc(Br)c(OCc2ccccc2C(C)C)nc1C [Q.306]
≥ 50%: [1] | [2] | [3]

CCN(C)/C=N/c1cc(Br)c(OC(C)c2ccccc2C(C)C)nc1C (stereo not drawn) [Q.307]
≥ 50%: [1] | [2] | [3]
